In the supplement of paper PMC10307832:

How the values were obtained:
Test in all cases: relative viability (nuclei count vs DMSO), 5 days (fraction); higher = more cells survive
[1] = test system: NCI-H1703
Summary of the method: (§1)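 Lung cancer cell lines in 1536-well plates got either a single drug or a fixed anchor-drug dose together with five library-drug doses (not always all listed) in √10 steps, by pin tool, on the day after seeding. Nuclei were counted after 5 days, and relative viability is the treated-to-vehicle ratio of nuclei counts. Values are medians of duplicate plates.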

[2] = test system: IA-LM
Summary of the method: as §1

[3] = test system: EBC-1
Summary of the method: as §1

[4] = test system: A549
Summary of the method: as §1

[5] = test system: SW 1573
Summary of the method: as §1

[6] = test system: Calu-6
Summary of the method: as §1

[7] = test system: COR-L23
Summary of the method: as §1

[8] = test system: ChaGo-K-1
Summary of the method: as §1

[9] = test system: NCI-H1651
Summary of the method: as §1

[10] = test system: NCI-H1437
Summary of the method: as §1

[11] = test system: ABC-1
Summary of the method: as §1

[12] = test system: NCI-H1299
Summary of the method: as §1

[13] = test system: SK-MES-1
Summary of the method: as §1

COc1cc2nccc(Oc3ccc(NC(=O)Nc4cc(C)on4)c(Cl)c3)c2cc1OC [Tivozanib] + C[C@@H](Oc1cc(-c2cnn(C3CCNCC3)c2)cnc1N)c1c(Cl)ccc(F)c1Cl [Crizotinib] (partner 1 µM)
relative viability ([1]; first compound 0.005 µM): 0.239 | relative viability ([1]; first compound 0.01581 µM): 0.194 | relative viability ([1]; first compound 0.05 µM): 0.163 | relative viability ([1]; first compound 0.1581 µM): 0.157 | relative viability ([1]; first compound 0.5 µM): 0.155 | relative viability ([2]; first compound 0.01581 µM): 0.716 | relative viability ([2]; first compound 0.05 µM): 1.04 | relative viability ([2]; first compound 0.1581 µM): 0.507 | relative viability ([2]; first compound 0.5 µM): 0.494 | relative viability ([3]; first compound 0.005 µM): 0.182 | relative viability ([3]; first compound 0.01581 µM): 0.186 | relative viability ([3]; first compound 0.05 µM): 0.211 | relative viability ([3]; first compound 0.1581 µM): 0.207 | relative viability ([3]; first compound 0.5 µM): 0.192 | relative viability ([4]; first compound 0.005 µM): 0.765 | relative viability ([4]; first compound 0.01581 µM): 0.793 | relative viability ([4]; first compound 0.05 µM): 0.694 | relative viability ([4]; first compound 0.1581 µM): 0.828 | relative viability ([4]; first compound 0.5 µM): 0.652 | relative viability ([5]; first compound 0.005 µM): 0.901 | relative viability ([5]; first compound 0.01581 µM): 0.765 | relative viability ([5]; first compound 0.05 µM): 0.78 | relative viability ([5]; first compound 0.1581 µM): 0.749 | relative viability ([5]; first compound 0.5 µM): 0.829 | relative viability ([6]; first compound 0.005 µM): 0.778 | relative viability ([6]; first compound 0.01581 µM): 0.772 | relative viability ([6]; first compound 0.05 µM): 0.706 | relative viability ([6]; first compound 0.1581 µM): 0.839 | relative viability ([6]; first compound 0.5 µM): 0.711 | relative viability ([7]; first compound 0.005 µM): 0.622 | relative viability ([7]; first compound 0.01581 µM): 0.615 | relative viability ([7]; first compound 0.05 µM): 0.659 | relative viability ([7]; first compound 0.1581 µM): 0.643 | relative viability ([7]; first compound 0.5 µM): 0.543 | relative viability ([8]; first compound 0.005 µM): 1.05 | relative viability ([8]; first compound 0.01581 µM): 1.17 | relative viability ([8]; first compound 0.05 µM): 1.19 | relative viability ([8]; first compound 0.1581 µM): 1.17 | relative viability ([8]; first compound 0.5 µM): 0.849 | relative viability ([9]; first compound 0.005 µM): 0.896 | relative viability ([9]; first compound 0.01581 µM): 0.91 | relative viability ([9]; first compound 0.05 µM): 0.796 | relative viability ([9]; first compound 0.1581 µM): 0.84 | relative viability ([9]; first compound 0.5 µM): 0.92 | relative viability ([10]; first compound 0.005 µM): 0.899 | relative viability ([10]; first compound 0.01581 µM): 0.932 | relative viability ([10]; first compound 0.05 µM): 0.859 | relative viability ([10]; first compound 0.1581 µM): 0.947 | relative viability ([10]; first compound 0.5 µM): 0.824 | relative viability ([11]; first compound 0.005 µM): 1.09 | relative viability ([11]; first compound 0.01581 µM): 1.12 | relative viability ([11]; first compound 0.05 µM): 1.09 | relative viability ([11]; first compound 0.1581 µM): 1.08 | relative viability ([11]; first compound 0.5 µM): 0.874 | relative viability ([12]; first compound 0.005 µM): 0.922 | relative viability ([12]; first compound 0.01581 µM): 0.971 | relative viability ([12]; first compound 0.05 µM): 0.968 | relative viability ([12]; first compound 0.1581 µM): 0.991 | relative viability ([12]; first compound 0.5 µM): 0.906 | relative viability ([13]; first compound 0.005 µM): 1.02 | relative viability ([13]; first compound 0.01581 µM): 1.03 | relative viability ([13]; first compound 0.05 µM): 1 | relative viability ([13]; first compound 0.1581 µM): 0.995 | relative viability ([13]; first compound 0.5 µM): 0.87

COc1cc2nccc(Oc3ccc(NC(=O)Nc4cc(C)on4)c(Cl)c3)c2cc1OC [Tivozanib] + CS(=O)(=O)N1CCN(Cc2cc3nc(-c4cccc5[nH]ncc45)nc(N4CCOCC4)c3s2)CC1 [Pictilisib] (partner 1 µM)
relative viability ([1]; first compound 0.005 µM): 0.161 | relative viability ([1]; first compound 0.01581 µM): 0.236 | relative viability ([1]; first compound 0.05 µM): 0.253 | relative viability ([1]; first compound 0.1581 µM): 0.181 | relative viability ([1]; first compound 0.5 µM): 0.213 | relative viability ([2]; first compound 0.005 µM): 0.308 | relative viability ([2]; first compound 0.01581 µM): 0.366 | relative viability ([2]; first compound 0.05 µM): 0.321 | relative viability ([2]; first compound 0.1581 µM): 0.316 | relative viability ([2]; first compound 0.5 µM): 0.574 | relative viability ([3]; first compound 0.005 µM): 0.367 | relative viability ([3]; first compound 0.01581 µM): 0.362 | relative viability ([3]; first compound 0.05 µM): 0.378 | relative viability ([3]; first compound 0.1581 µM): 0.25 | relative viability ([3]; first compound 0.5 µM): 0.401 | relative viability ([4]; first compound 0.005 µM): 0.49 | relative viability ([4]; first compound 0.01581 µM): 0.456 | relative viability ([4]; first compound 0.05 µM): 0.65 | relative viability ([4]; first compound 0.1581 µM): 0.451 | relative viability ([4]; first compound 0.5 µM): 0.571 | relative viability ([5]; first compound 0.005 µM): 0.448 | relative viability ([5]; first compound 0.01581 µM): 0.479 | relative viability ([5]; first compound 0.05 µM): 0.505 | relative viability ([5]; first compound 0.1581 µM): 0.346 | relative viability ([5]; first compound 0.5 µM): 0.406 | relative viability ([6]; first compound 0.005 µM): 0.969 | relative viability ([6]; first compound 0.01581 µM): 0.979 | relative viability ([6]; first compound 0.05 µM): 0.842 | relative viability ([6]; first compound 0.1581 µM): 0.798 | relative viability ([6]; first compound 0.5 µM): 0.823 | relative viability ([7]; first compound 0.005 µM): 0.733 | relative viability ([7]; first compound 0.01581 µM): 0.74 | relative viability ([7]; first compound 0.05 µM): 0.917 | relative viability ([7]; first compound 0.1581 µM): 0.575 | relative viability ([7]; first compound 0.5 µM): 0.565 | relative viability ([8]; first compound 0.005 µM): 0.591 | relative viability ([8]; first compound 0.01581 µM): 0.779 | relative viability ([8]; first compound 0.05 µM): 0.559 | relative viability ([8]; first compound 0.1581 µM): 0.388 | relative viability ([8]; first compound 0.5 µM): 0.504 | relative viability ([9]; first compound 0.005 µM): 0.464 | relative viability ([9]; first compound 0.01581 µM): 0.581 | relative viability ([9]; first compound 0.05 µM): 0.613 | relative viability ([9]; first compound 0.1581 µM): 0.484 | relative viability ([9]; first compound 0.5 µM): 0.783 | relative viability ([10]; first compound 0.005 µM): 0.347 | relative viability ([10]; first compound 0.01581 µM): 0.463 | relative viability ([10]; first compound 0.05 µM): 0.401 | relative viability ([10]; first compound 0.1581 µM): 0.177 | relative viability ([10]; first compound 0.5 µM): 0.52 | relative viability ([11]; first compound 0.005 µM): 0.775 | relative viability ([11]; first compound 0.01581 µM): 0.673 | relative viability ([11]; first compound 0.05 µM): 0.794 | relative viability ([11]; first compound 0.1581 µM): 0.646 | relative viability ([11]; first compound 0.5 µM): 0.326 | relative viability ([12]; first compound 0.005 µM): 0.687 | relative viability ([12]; first compound 0.01581 µM): 0.62 | relative viability ([12]; first compound 0.05 µM): 0.797 | relative viability ([12]; first compound 0.1581 µM): 0.789 | relative viability ([12]; first compound 0.5 µM): 0.615 | relative viability ([13]; first compound 0.005 µM): 0.325 | relative viability ([13]; first compound 0.01581 µM): 0.34 | relative viability ([13]; first compound 0.05 µM): 0.416 | relative viability ([13]; first compound 0.1581 µM): 0.289 | relative viability ([13]; first compound 0.5 µM): 0.363
